Source: patent US11833120B2, “Binding protein drug conjugates comprising anthracycline derivatives” (priority 2014, dated 2023)

Experiments:
[1] = tested on: ovarian (A2780) cancer cell line; details: A2780, WO2012/073217; cited from earlier work
[2] = tested on: breast cancer (MCF7) cell line; details: MCF7, WO2012/073217; cited from earlier work
[3] = tested on: L428, a Hodgkin's lymphoma cell line expressing low to moderate levels of CD30; experiment: In vitro cytotoxicity assay (CellTiter-Glo) on L428; assay type: cell-based, human; details: CD30 LO L428 cells, 4 days, up to 20 μg/ml
Method: For this, cells were plated on 96-well plates in 100 μl RPMI/10% FCS at a density of 10^4 cells per well and grown at 37° C. in a humidified incubator at 5% CO2 atmosphere. After one day incubation, 25 μl medium was carefully removed from each well and replaced by 25 μl of 3.5-fold serial dilutions of each ADC in growth medium, resulting in final ADC concentrations ranging from 20 μg/ml to 0.25 ng/ml. Each dilution was done in duplicate. After 4 additional days, plates were removed from the incubator and equilibrated to room temperature. After approximately 30 minutes, 100 μl CellTiter-Glo® Luminescent Solution (Promega, Cat. No G7570) was added to each well and, after shaking the plates at 450 rpm for 5 min followed by a 10 min incubation without shaking, luminescence was measured on a Tecan Infinity F200 with an integration time of 1 second per well.
Cells were incubated with serial dilutions of ADCs for 4 days, after which CellTiter-Glo® Luminescent Solution (Promega) was added and viable cells were quantified by measuring the luminescence on a Tecan Infinity F200.

Row | Compound | potency for in vitro cell killing [1] | potency for in vitro cell killing [2] | cell killing (in words) [3]
1 | COc1cccc2c1C(=O)c1c(O)c3c(c(O)c1C2=O)C[C@@](O)(C(=O)CO)C[C@@H]3O[C@H]1C[C@H]2[C@H](O[C@@H]3[C@@H](OC)OCCN32)[C@H](C)O1 [PNU-159682] | pico- to femtomolar range | pico- to femtomolar range | 
2 | Adcetris |  |  | inefficient at killing
3 | cAc10-PNU-EDA-Gly5 |  |  | only at higher concentrations, similar to the control ADCs employed
